Data: PubChem BioAssay (NCI)
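Method: 48-hour compound exposure of cells in 96-well plates, five concentrations, linear interpolation of endpoints. At the TGI there is no net growth.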

Tests used:
Experiment in all cases: growth of human tumour cells (NCI), 48 h
BT-549 breast = test system: BT-549 breast
NCI-H522 lung = test system: NCI-H522 lung
MCF7 breast = test system: MCF7 breast
SK-MEL-28 melanoma = test system: SK-MEL-28 melanoma
K-562 leukemia = test system: K-562 leukemia
UACC-62 melanoma = test system: UACC-62 melanoma
HL-60(TB) leukemia = test system: HL-60(TB) leukemia
HOP-62 NSCLC = test system: HOP-62 NSCLC
NCI/ADR-RES ovarian = test system: NCI/ADR-RES ovarian
SK-OV-3 ovarian = test system: SK-OV-3 ovarian
RXF 393 renal = test system: RXF 393 renal
M14 melanoma = test system: M14 melanoma
EKVX NSCLC = test system: EKVX NSCLC
OVCAR-4 ovarian = test system: OVCAR-4 ovarian
HT29 colon = test system: HT29 colon
OVCAR-5 ovarian = test system: OVCAR-5 ovarian
HCC-2998 colon = test system: HCC-2998 colon
TK-10 renal = test system: TK-10 renal
IGROV1 ovarian = test system: IGROV1 ovarian
MDA-N = test system: MDA-N
786-0 renal = test system: 786-0 renal
KM12 colon = test system: KM12 colon
ACHN renal = test system: ACHN renal
SF-539 CNS = test system: SF-539 CNS
DU-145 prostate = test system: DU-145 prostate
OVCAR-8 ovarian = test system: OVCAR-8 ovarian
SW-620 colon = test system: SW-620 colon
COLO 205 colon = test system: COLO 205 colon
T-47D breast = test system: T-47D breast
HS 578T breast = test system: HS 578T breast
NCI-H460 lung = test system: NCI-H460 lung
MDA-MB-231 breast = test system: MDA-MB-231 breast
U251 CNS = test system: U251 CNS
SF-295 CNS = test system: SF-295 CNS
MOLT-4 leukemia = test system: MOLT-4 leukemia
MDA-MB-435 = test system: MDA-MB-435
SK-MEL-2 melanoma = test system: SK-MEL-2 melanoma
SN12C renal = test system: SN12C renal
HOP-92 NSCLC = test system: HOP-92 NSCLC
UACC-257 melanoma = test system: UACC-257 melanoma
SR leukemia = test system: SR leukemia
PC-3 prostate = test system: PC-3 prostate
NCI-H23 lung = test system: NCI-H23 lung
MALME-3M melanoma = test system: MALME-3M melanoma
UO-31 renal = test system: UO-31 renal
HCT-116 colon = test system: HCT-116 colon
SNB-19 CNS = test system: SNB-19 CNS
SNB-75 CNS = test system: SNB-75 CNS
A549 NSCLC = test system: A549 NSCLC
RPMI-8226 leukemia = test system: RPMI-8226 leukemia
SF-268 CNS = test system: SF-268 CNS
CCRF-CEM leukemia = test system: CCRF-CEM leukemia
HCT-15 colon = test system: HCT-15 colon
OVCAR-3 ovarian = test system: OVCAR-3 ovarian
LOX IMVI melanoma = test system: LOX IMVI melanoma
A498 renal = test system: A498 renal
NCI-H226 lung = test system: NCI-H226 lung
SK-MEL-5 melanoma = test system: SK-MEL-5 melanoma
CAKI-1 renal = test system: CAKI-1 renal

## CO[C@@H]1[C@@H](OC2OC(C)C(OC3CC(C)(O)C(OC(=O)CC(C)C)C(C)O3)C(N(C)C)C2O)[C@@H](CC=O)C[C@@H](C)C(=O)/C=C/C2O[C@H]2C[C@@H](C)OC(=O)C[C@H]1OC(C)=O (some centres not stated)
BT-549 breast
  TGI: 40.5 µM
NCI-H522 lung
  TGI: 36 µM
MCF7 breast
  TGI: 30.7 µM
SK-MEL-28 melanoma
  TGI: 34.8 µM
K-562 leukemia
  TGI: 39.8 µM
UACC-62 melanoma
  TGI: 60.1 µM
HL-60(TB) leukemia
  TGI: 25 µM
HOP-62 NSCLC
  TGI: 37.8 µM
NCI/ADR-RES ovarian
  TGI: 98.9 µM
SK-OV-3 ovarian
  TGI: > 100 µM
RXF 393 renal
  TGI: 64.7 µM
M14 melanoma
  TGI: 30 µM
EKVX NSCLC
  TGI: > 100 µM
OVCAR-4 ovarian
  TGI: 86.7 µM
HT29 colon
  TGI: 26.4 µM
OVCAR-5 ovarian
  TGI: 31.8 µM
HCC-2998 colon
  TGI: 32 µM
TK-10 renal
  TGI: 50.9 µM
IGROV1 ovarian
  TGI: 61 µM
MDA-N
  TGI: 29.8 µM
786-0 renal
  TGI: 50.2 µM
KM12 colon
  TGI: 32.2 µM
ACHN renal
  TGI: 46.8 µM
SF-539 CNS
  TGI: 38.5 µM
DU-145 prostate
  TGI: 28 µM
OVCAR-8 ovarian
  TGI: > 100 µM
SW-620 colon
  TGI: 35.8 µM
COLO 205 colon
  TGI: 26.2 µM
T-47D breast
  TGI: 84.4 µM
HS 578T breast
  TGI: > 100 µM
NCI-H460 lung
  TGI: 41.8 µM
MDA-MB-231 breast
  TGI: 45.6 µM
U251 CNS
  TGI: 35.7 µM
SF-295 CNS
  TGI: 48.2 µM
MOLT-4 leukemia
  TGI: 27.7 µM
MDA-MB-435
  TGI: 45.2 µM
SK-MEL-2 melanoma
  TGI: 43.7 µM
SN12C renal
  TGI: 46.2 µM
HOP-92 NSCLC
  TGI: 27 µM
UACC-257 melanoma
  TGI: 34 µM
SR leukemia
  TGI: 42.4 µM
PC-3 prostate
  TGI: 38.4 µM
NCI-H23 lung
  TGI: 45.8 µM
MALME-3M melanoma
  TGI: 27.9 µM
UO-31 renal
  TGI: 73.6 µM
HCT-116 colon
  TGI: 30.8 µM
SNB-19 CNS
  TGI: 60.1 µM
SNB-75 CNS
  TGI: > 100 µM
A549 NSCLC
  TGI: > 100 µM
RPMI-8226 leukemia
  TGI: 47.4 µM
SF-268 CNS
  TGI: > 100 µM
CCRF-CEM leukemia
  TGI: 34.3 µM
HCT-15 colon
  TGI: 36 µM
OVCAR-3 ovarian
  TGI: 40.5 µM
LOX IMVI melanoma
  TGI: 30.4 µM
A498 renal
  TGI: 52 µM
NCI-H226 lung
  TGI: 33.5 µM
SK-MEL-5 melanoma
  TGI: 32.9 µM

## CC(=O)OCC1OC(n2c(N)c(C#N)c(-c3ccccc3)c(C#N)c2=S)C(OC(C)=O)C(OC(C)=O)C1OC(C)=O (configuration not stated)
BT-549 breast
  TGI: > 100 µM
NCI-H522 lung
  TGI: > 100 µM
MCF7 breast
  TGI: > 100 µM
SK-MEL-28 melanoma
  TGI: > 100 µM
K-562 leukemia
  TGI: > 100 µM
UACC-62 melanoma
  TGI: > 100 µM
HL-60(TB) leukemia
  TGI: > 100 µM
HOP-62 NSCLC
  TGI: 45 µM
NCI/ADR-RES ovarian
  TGI: > 100 µM
SK-OV-3 ovarian
  TGI: > 100 µM
RXF 393 renal
  TGI: > 70.5 µM
M14 melanoma
  TGI: > 100 µM
EKVX NSCLC
  TGI: > 100 µM
OVCAR-4 ovarian
  TGI: > 100 µM
HT29 colon
  TGI: > 100 µM
OVCAR-5 ovarian
  TGI: > 100 µM
HCC-2998 colon
  TGI: > 100 µM
TK-10 renal
  TGI: > 100 µM
IGROV1 ovarian
  TGI: > 100 µM
MDA-N
  TGI: > 100 µM
786-0 renal
  TGI: > 86.4 µM
KM12 colon
  TGI: > 100 µM
ACHN renal
  TGI: > 100 µM
SF-539 CNS
  TGI: > 100 µM
DU-145 prostate
  TGI: > 100 µM
CAKI-1 renal
  TGI: > 100 µM
OVCAR-8 ovarian
  TGI: > 100 µM
SW-620 colon
  TGI: > 100 µM
COLO 205 colon
  TGI: > 100 µM
T-47D breast
  TGI: > 100 µM
HS 578T breast
  TGI: 54.1 µM
NCI-H460 lung
  TGI: > 100 µM
MDA-MB-231 breast
  TGI: > 100 µM
U251 CNS
  TGI: 59.1 µM
SF-295 CNS
  TGI: > 93 µM
MOLT-4 leukemia
  TGI: > 100 µM
MDA-MB-435
  TGI: > 100 µM
SK-MEL-2 melanoma
  TGI: > 100 µM
SN12C renal
  TGI: > 100 µM
HOP-92 NSCLC
  TGI: 50.9 µM
UACC-257 melanoma
  TGI: > 100 µM
SR leukemia
  TGI: > 100 µM
PC-3 prostate
  TGI: > 100 µM
NCI-H23 lung
  TGI: > 100 µM
MALME-3M melanoma
  TGI: > 100 µM
UO-31 renal
  TGI: > 100 µM
HCT-116 colon
  TGI: > 100 µM
SNB-19 CNS
  TGI: > 75.4 µM
SNB-75 CNS
  TGI: 30 µM
A549 NSCLC
  TGI: > 100 µM
RPMI-8226 leukemia
  TGI: > 100 µM
SF-268 CNS
  TGI: > 77.5 µM
CCRF-CEM leukemia
  TGI: > 100 µM
HCT-15 colon
  TGI: > 100 µM
OVCAR-3 ovarian
  TGI: > 100 µM
LOX IMVI melanoma
  TGI: > 100 µM
A498 renal
  TGI: > 100 µM
NCI-H226 lung
  TGI: > 100 µM
SK-MEL-5 melanoma
  TGI: > 100 µM
